Experimental data reported in patent US6800653B2, “Epothilone derivatives” (priority 2001, dated 2004).

Assays:
[1] = test system: HCT-116 human colon carcinoma cells; test: Cytotoxicity (in vitro) by MTS assay; format: cell-based; conditions: HCT-116, 72 hours incubation, MTS, read-out: HTC-116 assay IC50
Procedure: Cytoxicity was assessed in HCT-116 human colon carcinoma cells by MTS (3-(4,5-dimethylthiazol-2-yl)-5-(3-carboxymethoxyphenyl)-2-(4-sulphenyl)-2H-tetrazolium, inner salt) assay as reported in T. L. Riss, et. al., “Comparison of MTT, XTT, and a novel tetrazolium compound MTS for in vitro proliferation and chemosensitivity assays.,” Mol. Biol. Cell 3 (Suppl.): 184a, 1992. Cells were plated at 4,000 cell/well in 96 well microtiter plates and 24 hours later drugs were added and serial diluted. The cells were incubated at 37° form 72 hours at which time the tetrazolium dye, MTS at 333 μg/ml (final concentration), in combination with the electron coupling agent phenazine methosulfate at 25 μM (final concentration) was added. A dehydrogenase enzyme in live cells reduces the MTS to a form that absorbs light at […] which can be quantitated spectrophotometrically. The greater the absorbance the greater the number of live cells. The results are expressed as an IC50, which is the drug concentration required to inhibit cell proliferation (i.e. absorbance at 450 nm) to 50% of that of untreated control cells.

calf brain tubulin = test: In vitro tubulin polymerization; format: biochemical; conditions: interpolated concentration inducing an initial slope of 0.01 OD/minute; 1.0 mg/ml microtubule protein, 37°; read-out: Tubulin assay EC0.01
Procedure: In vitro Tubulin Polymerization
Twice cycled (2×) calf brain tubulin was prepared following the procedure of Williams and Lee (see Williams, R. C., Jr., and Lee, J. C. Preparation of tubulin from brain. Methods in Enzymology 85, Pt. D: 376-385, 1982) and stored in liquid nitrogen before use. Quantification of tubulin polymerization potency is accomplished following a modified procedure of Swindell, et al., (see Swindell, C. S., Krauss, N. E., Horwitz, S. B., and Ringel, L. Biologically active taxol analogues with deleted A-ring side chain substituents and variable C-2′ configurations. J. Med. Chem. 34: 1176-1184, 1991). These modifications, in part, result in the expression of tubulin polymerization potency as an effective concentration for any given compound. For this method, different concentrations of compound in polymerization buffer (0.1M MES, 1 mM EGTA, 0.5 mM MgCl2, pH 6.6) are added to tubulin in polymerization buffer at 37° in microcuvette wells of a Beckman (Beckman Instruments) Model DU 7400 UV spectrophotometer. A final microtubule protein concentration of 1.0 mg/ml and compound concentration of generally 2.5, 5.0, and 10 μM are used. Initial slopes of OD change measured every 10 seconds were calculated by the program accompanying the instrument after initial and final times of the linear region encompassing at least 3 time points were manually defined. Under these conditions linear variances were generally <10^−6, slopes ranged from 0.03 to 0.002 absorbance unit/minute, and maximum absorbance was 0.15 absorbance units. Effective concentration (EC0.01) is defined as the interpolated concentration capable of inducing an initial slope of 0.01 OD/minute rate and is calculated using the formula: EC0.01=concentration/slope. EC0.01 values are expressed as the mean with standard deviation obtained from 3 different concentrations. EC0.01 values for the compounds in this invention fall in the range 0.01-1000 μM.

CC(=O)N1C2CC(/C(C)=C/c3csc(C)n3)OC(=O)C[C@H](O)C(C)(C)C(=O)[C@H](C)[C@@H](O)[C@@H](C)CCC[C@H]21 (relative stereo) [Example 21, [1S-[1R*,3R*(E),7R*,10S,11R*,12R*,16S*]]-17-Acetyl-7,11-dihydroxy-8,8,10,12-tetramethyl-3-[1-methyl-2-(2-methyl-4-thiazolyl)ethenyl]-4-oxa-17-azabicyclo[14.1.0]heptadecane-5,9-dione.]
IC50 [1]: 0.9 nM | EC50 (calf brain tubulin): 1200 nM

C/C(=C\c1csc(C)n1)C1CC2[C@@H](CCC[C@H](C)[C@H](O)[C@@H](C)C(=O)C(C)(C)[C@@H](O)CC(=O)O1)N2C(=O)c1ccccc1 (relative stereo) [Example 22, 1S-[1R*,3R*(E),7R*,10S,11R*,12R*,16S*]]-17-Phenylcarbonyl-7,11-dihydroxy-8,8,10,12-tetramethyl-3-[1-methyl-2-(2-methyl-4-thiazolyl)ethenyl]-4-oxa-17-azabicyclo[14.1.0]heptadecane-5,9-dione.]
IC50 [1]: 3 nM | EC50 (calf brain tubulin): 1400 nM

C/C(=C\c1csc(C)n1)C1CC2[C@@H](CCC[C@H](C)[C@H](O)[C@@H](C)C(=O)C(C)(C)[C@@H](O)CC(=O)O1)N2C(=O)c1cccs1 (relative stereo) [Example 23, [1S-[1R*,3R*(E),7R*,10S*,11R*,12R*,16S*]]-17-(2-Thienyl)carbonyl-7,11-dihydroxy-8,8,10,12-tetramethyl-3-[1-methyl-2-(2-methyl-4-thiazolyl)ethenyl]-4-oxa-17-azabicyclo[14.1.0]heptadecane-5,9-dione.]
IC50 [1]: 1.6 nM | EC50 (calf brain tubulin): 1200 nM

CCOC(=O)N1C2CC(/C(C)=C/c3csc(C)n3)OC(=O)C[C@H](O)C(C)(C)C(=O)[C@H](C)[C@@H](O)[C@@H](C)CCC[C@H]21 (relative stereo) [Example 24]
IC50 [1]: 7.7 nM | EC50 (calf brain tubulin): 1200 nM
